Experimental data from patent US20170008888A1 (KYORIN PHARMACEUTICAL CO., LTD., priority 2014, published 2017).

How the values were obtained:
human PBMCs = assay: Human PBMC TNF-α response to endotoxin (ELISA); type: cell-based; details: 0.1 μg/ml LPS 16 h, read-out: EC50 for the inhibition of the human PBMC TNF-α response to endotoxin, ave. ± S.D.
Method: Human PBMCs (Astarte Biologics, Redmond, Wash.) were seeded at 2e6 cells/ml in RPMI 1640 containing 10% (v/v) charcoal-dextran treated, heat inactivated FBS (Omega Scientific, Tarzana, Calif.), 0.05 mM 2-Mercaptoethanol (Sigma-Aldrich, St. Louis, Mo.), and 1×Pen/Strep Amphotericin B (Lonza, Allendale, N.J.). Cells were pre-treated with test compounds (10 μM down by ⅕ in a 4-point serial dilution series) for 1 h at 37° C. in a humidified atmosphere at 5% CO2. Cells were then stimulated with 0.1 μg/ml lipopolysaccharide (LPS) from E. coli 0111:B4 (EMD Millipore, Billerica, Mass.) for 16 h at 37° C. in a humidified atmosphere at 5% CO2. Supernatant was collected and a 25-fold dilution was analyzed for TNF-α concentration using an ELISA kit from Life Technologies (Grand Island, N.Y.) according to the manufacturer's instructions. Absorbance at 450 nm was read using the Synergy 2 multi-detection microplate reader (BioTek Instruments, Winooski, Vt.).

ABL or ARG = assay: Probe-based (AX9989) kinase profiling in Jurkat lysate: ABL or ARG; type: binding; details: screening concentration 1.0 μM
Method: (§1) In this example, potency of the compounds as ERK5 inhibitors was assessed, and the compounds were screened for activity against several kinases in Jurkat cells.
(§2) Jurkat cell pellets were resuspended in four volumes of lysis buffer (50 mM HEPES pH 7.5, 150 mM NaCl, 0.1% Triton-X-100, 1% v/v phosphatase, inhibitor cocktail II [EMD/Calbiochem, #524625]), sonicated using a tip, sonicator, and Dounce homogenized. Lysate was cleared by centrifugation, at 16,000 g for 15 min., was gel filtered (BioRad 10DG) and MnCl2 was then added to a final concentration of 20 mM before treatment with the test compound and probe labeling. […] All compound treatments were performed at room temperature.
(§3) Acyl phosphate ATP probe (AX9989) labeling reactions were performed at room temperature with a final probe concentration of 5 μM after a 15 min pre-incubation of lysate with a test compound. All reactions were performed in duplicate, using 445 μl/sample at 5 mg/ml. Probe-labeled lysates were denatured and reduced (6 M urea, 10 mM DTT, 65° C., 15 min), alkylated (40 mM iodoacetamide, 37° C., 30 min, and gel filtered (Sephadex G25) into 10 mM ammonium bicarbonate, 2 M urea, 5 mM methionine. The desalted protein mixture was digested with trypsin (0.015 mg/ml) for 1 hr at 37° C., and desthiobiotinylated peptides were captured using a […] high-capacity streptavidin resin (Thermo Scientific). Captured peptides were then washed extensively using 150 μl/wash with three different wash buffers: (A) 3 times with 1% triton, 0.5% tergitol, 1 mM EDTA in PBS; (B) 18 times with PBS; and (C) 8 times with HPLC grade water. Peptides were eluted from the streptavidin beads using two 35-μL washes of a 50% CH3CN/water mixture containing 0.1% TFA at room temperature.
(§4) Kinase active site peptides were identified and quantified using LC/MS. Percent inhibition was calculated as the normalized decrease in the ESI-MS fragment intensities of probe-labeled peptides in samples incubated with the test compound compared to those without.

AMPKa1 or AMPKa2 = assay: Probe-based (AX9989) kinase profiling in Jurkat lysate: AMPKa1 or AMPKa2; type: binding; details: screening concentration 1.0 μM
Method: as §1, §2, §3, §4

AurA = target: T1, AurA (Homo sapiens, UniProt O14965); assay: Probe-based (AX9989) kinase profiling in Jurkat lysate: AurA; type: binding; details: screening concentration 1.0 μM; read-out: Kinase inhibition % at indicated screening concentration: AurA
T1 construct: screened for activity against several kinases in Jurkat cells; endogenous in cells; host or cells: Jurkat cell lysate
T1 sequence (O14965 1-403): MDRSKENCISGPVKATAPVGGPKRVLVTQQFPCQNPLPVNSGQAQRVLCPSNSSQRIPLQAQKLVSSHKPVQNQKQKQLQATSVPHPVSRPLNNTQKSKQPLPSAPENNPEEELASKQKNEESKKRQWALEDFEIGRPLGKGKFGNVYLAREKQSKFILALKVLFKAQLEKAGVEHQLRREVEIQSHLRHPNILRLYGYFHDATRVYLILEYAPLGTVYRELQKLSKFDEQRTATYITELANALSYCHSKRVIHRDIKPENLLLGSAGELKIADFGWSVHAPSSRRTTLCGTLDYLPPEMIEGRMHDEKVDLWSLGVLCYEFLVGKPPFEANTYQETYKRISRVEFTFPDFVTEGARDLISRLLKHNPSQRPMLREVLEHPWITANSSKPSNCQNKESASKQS
Method: as §1, §2, §3, §4

ACK = target: T2, ACK (Homo sapiens, UniProt Q07912); assay: Probe-based (AX9989) kinase profiling in Jurkat lysate: ACK; type: binding; details: screening concentration 1.0 μM; read-out: Kinase inhibition % at indicated screening concentration: ACK
T2 construct: screened for activity against several kinases in Jurkat cells; endogenous in cells; host or cells: Jurkat cell lysate
Method: as §1, §2, §3, §4

JAK1 = target: T3, JAK1 (Homo sapiens, UniProt P23458); assay: Probe-based (AX9989) kinase profiling in Jurkat lysate: JAK1; type: binding; details: screening concentration 1.0 μM; read-out: Kinase inhibition % at indicated screening concentration: JAK1
T3 construct: screened for activity against several kinases in Jurkat cells; endogenous in cells; host or cells: Jurkat cell lysate
Method: as §1, §2, §3, §4

ERK5 = target: T4, ERK5 (Homo sapiens, UniProt Q13164); assay: Probe-based (AX9989 acyl phosphate ATP probe) kinase profiling in Jurkat lysate: ERK5; type: binding; details: for IC50: calculated from percent inhibition of AX9989 labeling and the screening concentration, Jurkat lysate; for inhibition at 1 µM: screening concentration 1.0 μM, read-out: Kinase inhibition % at indicated screening concentration: ERK5
T4 construct: screened for activity against several kinases in Jurkat cells; endogenous in cells; host or cells: Jurkat cell lysate
Method: as §1, §2, §3, §4
ERK5 IC50 values were calculated from the percent inhibition and the screening concentration.

AurB or AurC = assay: Probe-based (AX9989) kinase profiling in Jurkat lysate: AurB or AurC; type: binding; details: screening concentration 1.0 μM
Method: as §1, §2, §3, §4

TAO2 = target: T5, TAO2 (Homo sapiens, UniProt Q9UL54); assay: Probe-based (AX9989) kinase profiling in Jurkat lysate: TAO2; type: binding; details: screening concentration 1.0 μM; read-out: Kinase inhibition % at indicated screening concentration: TAO2
T5 construct: screened for activity against several kinases in Jurkat cells; endogenous in cells; host or cells: Jurkat cell lysate
T5 sequence (Q9UL54 1-1235): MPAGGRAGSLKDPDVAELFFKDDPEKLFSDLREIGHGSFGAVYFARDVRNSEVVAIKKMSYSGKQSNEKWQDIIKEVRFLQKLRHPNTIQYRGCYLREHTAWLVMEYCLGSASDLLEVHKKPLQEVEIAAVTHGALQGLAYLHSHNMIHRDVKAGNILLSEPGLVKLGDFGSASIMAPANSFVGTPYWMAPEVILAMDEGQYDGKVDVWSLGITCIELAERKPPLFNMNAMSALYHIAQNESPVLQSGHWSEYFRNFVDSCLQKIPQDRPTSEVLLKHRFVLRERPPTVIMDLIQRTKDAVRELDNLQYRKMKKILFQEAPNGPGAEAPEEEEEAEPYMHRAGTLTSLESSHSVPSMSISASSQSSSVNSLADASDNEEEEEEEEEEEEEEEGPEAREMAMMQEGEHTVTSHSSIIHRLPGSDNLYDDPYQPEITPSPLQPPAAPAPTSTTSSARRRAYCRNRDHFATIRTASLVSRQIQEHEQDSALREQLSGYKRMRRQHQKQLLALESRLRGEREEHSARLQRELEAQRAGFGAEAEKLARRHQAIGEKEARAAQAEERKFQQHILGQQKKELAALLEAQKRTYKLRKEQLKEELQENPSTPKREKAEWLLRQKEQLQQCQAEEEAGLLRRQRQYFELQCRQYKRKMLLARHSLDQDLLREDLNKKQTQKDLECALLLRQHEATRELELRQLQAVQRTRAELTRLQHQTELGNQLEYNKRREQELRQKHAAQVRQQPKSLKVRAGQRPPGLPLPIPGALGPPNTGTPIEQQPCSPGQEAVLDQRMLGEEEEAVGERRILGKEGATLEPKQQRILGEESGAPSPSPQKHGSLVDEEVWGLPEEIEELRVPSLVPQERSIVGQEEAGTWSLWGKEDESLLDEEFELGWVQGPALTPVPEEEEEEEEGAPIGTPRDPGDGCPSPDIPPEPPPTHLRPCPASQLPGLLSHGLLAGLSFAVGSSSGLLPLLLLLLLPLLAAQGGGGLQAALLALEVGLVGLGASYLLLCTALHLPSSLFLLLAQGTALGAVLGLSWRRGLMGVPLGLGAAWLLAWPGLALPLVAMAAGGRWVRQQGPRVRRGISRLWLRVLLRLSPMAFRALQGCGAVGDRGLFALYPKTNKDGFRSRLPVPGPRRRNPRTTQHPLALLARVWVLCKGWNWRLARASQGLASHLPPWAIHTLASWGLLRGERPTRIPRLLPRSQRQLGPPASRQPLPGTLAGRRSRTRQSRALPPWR
Method: as §1, §2, §3, §4

T4 sequence (Q13164 whole entry): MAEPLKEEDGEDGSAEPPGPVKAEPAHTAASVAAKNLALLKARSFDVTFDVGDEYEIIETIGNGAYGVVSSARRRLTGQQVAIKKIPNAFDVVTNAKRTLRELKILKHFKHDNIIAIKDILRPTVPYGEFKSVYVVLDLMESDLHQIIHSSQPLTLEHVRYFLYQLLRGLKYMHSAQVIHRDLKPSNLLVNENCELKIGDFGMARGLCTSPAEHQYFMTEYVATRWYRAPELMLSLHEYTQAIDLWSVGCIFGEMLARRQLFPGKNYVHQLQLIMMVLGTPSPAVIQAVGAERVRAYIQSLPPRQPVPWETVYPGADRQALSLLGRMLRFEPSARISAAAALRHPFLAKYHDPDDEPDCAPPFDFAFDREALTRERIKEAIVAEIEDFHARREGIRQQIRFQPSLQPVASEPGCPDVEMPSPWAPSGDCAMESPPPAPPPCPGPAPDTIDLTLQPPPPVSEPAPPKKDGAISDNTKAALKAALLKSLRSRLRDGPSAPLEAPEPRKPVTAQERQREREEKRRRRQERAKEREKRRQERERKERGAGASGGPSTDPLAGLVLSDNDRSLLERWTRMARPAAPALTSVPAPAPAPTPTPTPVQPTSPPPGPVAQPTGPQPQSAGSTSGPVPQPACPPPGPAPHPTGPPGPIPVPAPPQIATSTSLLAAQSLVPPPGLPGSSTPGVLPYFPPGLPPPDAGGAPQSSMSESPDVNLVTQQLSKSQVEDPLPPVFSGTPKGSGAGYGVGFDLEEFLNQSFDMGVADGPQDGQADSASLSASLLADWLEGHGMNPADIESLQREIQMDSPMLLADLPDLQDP
T3 sequence (P23458 whole entry): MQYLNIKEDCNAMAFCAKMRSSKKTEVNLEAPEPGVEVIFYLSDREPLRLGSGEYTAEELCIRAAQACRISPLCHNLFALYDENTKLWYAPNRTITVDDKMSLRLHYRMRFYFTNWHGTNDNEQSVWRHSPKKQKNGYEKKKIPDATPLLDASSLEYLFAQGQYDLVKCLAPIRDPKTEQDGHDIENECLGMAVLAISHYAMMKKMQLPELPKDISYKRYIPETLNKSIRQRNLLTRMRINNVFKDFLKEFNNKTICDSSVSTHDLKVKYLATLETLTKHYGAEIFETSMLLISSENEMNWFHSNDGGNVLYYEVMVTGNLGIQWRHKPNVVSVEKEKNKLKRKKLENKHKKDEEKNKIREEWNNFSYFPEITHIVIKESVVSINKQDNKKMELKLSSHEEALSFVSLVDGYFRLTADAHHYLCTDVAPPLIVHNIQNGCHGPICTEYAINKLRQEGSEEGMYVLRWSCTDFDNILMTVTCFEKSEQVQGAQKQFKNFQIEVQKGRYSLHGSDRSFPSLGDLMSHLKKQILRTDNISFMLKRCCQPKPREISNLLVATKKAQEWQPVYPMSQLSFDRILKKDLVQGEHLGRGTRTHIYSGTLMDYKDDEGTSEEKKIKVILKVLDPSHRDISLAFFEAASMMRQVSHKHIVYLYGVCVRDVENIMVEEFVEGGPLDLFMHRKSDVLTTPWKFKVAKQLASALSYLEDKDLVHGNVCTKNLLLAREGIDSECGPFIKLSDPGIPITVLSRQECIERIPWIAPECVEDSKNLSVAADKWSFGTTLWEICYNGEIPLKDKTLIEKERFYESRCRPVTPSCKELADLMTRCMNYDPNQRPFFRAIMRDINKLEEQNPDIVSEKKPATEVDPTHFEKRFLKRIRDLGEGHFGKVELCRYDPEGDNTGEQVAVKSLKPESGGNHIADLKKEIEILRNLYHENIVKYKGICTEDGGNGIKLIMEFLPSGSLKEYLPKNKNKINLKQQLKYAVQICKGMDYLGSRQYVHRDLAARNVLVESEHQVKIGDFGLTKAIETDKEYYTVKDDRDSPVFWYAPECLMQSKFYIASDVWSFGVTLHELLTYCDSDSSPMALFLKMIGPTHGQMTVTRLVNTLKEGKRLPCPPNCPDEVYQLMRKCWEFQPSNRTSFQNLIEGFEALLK
T2 sequence (Q07912 whole entry): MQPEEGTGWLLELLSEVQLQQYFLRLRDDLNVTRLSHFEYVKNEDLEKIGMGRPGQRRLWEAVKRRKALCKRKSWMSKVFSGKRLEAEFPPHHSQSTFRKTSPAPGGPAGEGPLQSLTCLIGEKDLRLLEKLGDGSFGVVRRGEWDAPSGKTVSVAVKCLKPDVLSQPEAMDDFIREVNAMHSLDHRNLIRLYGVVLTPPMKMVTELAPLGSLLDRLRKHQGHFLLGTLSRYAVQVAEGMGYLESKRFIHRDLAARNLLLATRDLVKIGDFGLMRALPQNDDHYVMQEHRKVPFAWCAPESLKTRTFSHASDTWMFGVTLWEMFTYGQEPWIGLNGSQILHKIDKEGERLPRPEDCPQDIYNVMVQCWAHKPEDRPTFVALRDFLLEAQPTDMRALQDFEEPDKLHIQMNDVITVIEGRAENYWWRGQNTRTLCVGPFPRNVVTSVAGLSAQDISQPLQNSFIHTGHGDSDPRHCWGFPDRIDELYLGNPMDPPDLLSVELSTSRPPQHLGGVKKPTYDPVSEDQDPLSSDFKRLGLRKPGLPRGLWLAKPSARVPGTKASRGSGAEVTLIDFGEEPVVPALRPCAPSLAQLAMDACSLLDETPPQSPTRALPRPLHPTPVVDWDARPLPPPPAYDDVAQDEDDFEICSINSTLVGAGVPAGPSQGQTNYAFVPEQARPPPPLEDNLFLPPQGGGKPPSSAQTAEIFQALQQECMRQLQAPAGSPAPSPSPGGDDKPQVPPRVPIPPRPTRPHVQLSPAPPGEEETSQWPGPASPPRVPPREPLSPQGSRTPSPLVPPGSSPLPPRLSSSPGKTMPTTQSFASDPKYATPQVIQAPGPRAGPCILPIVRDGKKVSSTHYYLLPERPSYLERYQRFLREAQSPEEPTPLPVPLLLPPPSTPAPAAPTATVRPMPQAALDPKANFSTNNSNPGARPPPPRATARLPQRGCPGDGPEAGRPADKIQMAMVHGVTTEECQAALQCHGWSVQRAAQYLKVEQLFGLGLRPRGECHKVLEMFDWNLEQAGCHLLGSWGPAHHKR

SMILES	EC50 (human PBMCs) [µM]	other results
CN1C(=O)c2ccccc2N(C)c2cc(N[C@H]3C[C@@H](O)C3)ncc21 [Compound T131]	6.06	
CN1C(=O)c2ccccc2N(C)c2cc(N[C@H]3CC[C@H](NC(=O)N4CCCC4)CC3)ncc21 [Compound 60]		Kinase inhibition % at indicated screening concentration: ABL or ARG (ABL or ARG): E (E is ≦35%); Kinase inhibition % at indicated screening concentration: AMPKa1 or AMPKa2 (AMPKa1 or AMPKa2): E (E is ≦35%); inhibition at 1 µM (AurA): ≤ 35%; inhibition at 1 µM (ACK): ≤ 35%; inhibition at 1 µM (JAK1): ≤ 35%; IC50 (ERK5): 101 to 500 nM; inhibition at 1 µM (ERK5): 75 to 90%; Kinase inhibition % at indicated screening concentration: AurB or AurC (AurB or AurC): E (E is ≦35%); inhibition at 1 µM (TAO2): ≤ 35%
CCOc1cc(Cl)ccc1Nc1cc2c(cn1)N(C)C(=O)c1ccccc1N2C [Compound 104]		Kinase inhibition % at indicated screening concentration: ABL or ARG (ABL or ARG): E (E is ≦35%); Kinase inhibition % at indicated screening concentration: AMPKa1 or AMPKa2 (AMPKa1 or AMPKa2): E (E is ≦35%); inhibition at 1 µM (AurA): ≤ 35%; inhibition at 1 µM (ACK): ≤ 35%; inhibition at 1 µM (JAK1): ≤ 35%; IC50 (ERK5): > 500 nM; inhibition at 1 µM (ERK5): 35 to 50%; Kinase inhibition % at indicated screening concentration: AurB or AurC (AurB or AurC): E (E is ≦35%); inhibition at 1 µM (TAO2): ≤ 35%
CCN(CC)CCN(C)C(=O)c1ccc(OC)c(Nc2cc3c(cn2)N(C)C(=O)c2ccccc2N3C)c1 [Compound 118]	3.32	
CN1C(=O)c2ccccc2N(C)c2cc(N[C@H]3CC[C@@](C)(O)CC3)ncc21 [Compound T123]	2.1	
CCOc1cc(C(=O)N(C)C)ccc1Nc1cc2c(cn1)N(C)C(=O)c1ccccc1N2C [Compound 117]	1.49	
CCOc1cc(C(=O)N2CCN(C3CCN(C)CC3)CC2)ccc1Nc1cc2c(cn1)N(C)C(=O)c1ccccc1S2(=O)=O [Compound T101]	> 15	
CN1C(=O)c2ccccc2N(C)c2cc(N[C@H]3CC[C@@H](O)C3)ncc21 [Compound T134]	3.68	
CN1C(=O)c2ccccc2N(C)c2cc(N[C@@H]3CCCCC3O)ncc21 (some centres unmarked) [Compound T109]	2.16	
CCOc1cc(C(=O)N(CCO)CCO)ccc1Nc1cc2c(cn1)N(C)C(=O)c1ccccc1N2C [Compound 121]	0.95	
CN1C(=O)c2ccccc2N(C)c2cc(N[C@@H]3CC[C@@H](O)C3)ncc21 [Compound T132]	3.28	
CN1C(=O)c2ccccc2N(C)c2cc(NC3CCCCC3O)ncc21 (centres unmarked) [Compound T108]	3.01	
CCOc1cc(C(=O)N[C@H]2CC[C@H](O)CC2)ccc1Nc1cc2c(cn1)N(C)C(=O)c1ccccc1S2 [Compound T90]	> 15	
Cc1cccc2c1N(C)c1cc(N[C@H]3CC[C@H](O)CC3)ncc1N(C)C2=O [Compound T121]	2.99	
Cc1ccc(Nc2cc3c(cn2)N(C)C(=O)c2ccccc2N3C)c(C)c1 [Compound 3]	4.23	IC50 (ERK5): > 500 nM; inhibition at 1 µM (ERK5): 35 to 50%
CN1C(=O)c2ccccc2N(C)c2cc(N[C@@H]3CCC[C@H](O)C3)ncc21 [Compound T111]	1.92	
CN1C(=O)c2ccccc2N(C)c2cc(N[C@H]3CC[C@H](N)C3)ncc21 [Compound T133]	9.84	
CN1C(=O)c2ccccc2N(C)c2cc(N[C@H]3C[C@H](N)C3)ncc21 [Compound T135]	9.2	
CCOc1cc(C(=O)N[C@H]2CC[C@H](O)CC2)ccc1Nc1cc2c(cn1)N(C)C(=O)c1ccccc1S2(=O)=O [Compound T91]	> 15	
CCO[C@@H]1CCCC[C@H]1Nc1cc2c(cn1)N(C)C(=O)c1ccccc1N2C [Compound T112]	2.36	
CN1C(=O)c2ccccc2N(C)c2cc(NC3CCN(S(=O)(=O)CCN4CCCC4)CC3)ncc21 [Compound T130]	2.46	
CCN(CC)CCN(C)C(=O)c1cccc(Nc2cc3c(cn2)N(C)C(=O)c2ccccc2N3C)c1OC [Compound 119]	3.96	
CCOc1cc(C(=O)N2CC[C@@H](NC3CCN(C)CC3)C2)ccc1Nc1cc2c(cn1)N(C)C(=O)c1ccccc1N2C [Compound T60]	0.95	
